According to the CheMixHub ionic liquid set:

Assay: xn = mol fraction of the nth substance listed
Conditions: 100.3 kPa

CCCCC[n+]1ccn(C)c1.C[C@H](N)C(=O)[O-] + O
viscosity [mPa·s]
Conditions	288.15 K	293.15 K	298.15 K	303.15 K	308.15 K	313.15 K	318.15 K	323.15 K	328.15 K
x1 = 0.0003008	1.156	1.015	0.9	0.81	0.725	0.661	0.604	0.554	0.511
x1 = 0.0003999	1.162	1.022	0.907	0.813	0.732	0.664	0.606	0.556	0.513
x1 = 0.0005025	1.167	1.027	0.911	0.817	0.735	0.666	0.608	0.559	0.515
x1 = 0.001012	1.203	1.057	0.937	0.838	0.755	0.684	0.626	0.573	0.529
x1 = 0.00302	1.361	1.197	1.057	0.939	0.841	0.759	0.688	0.629	–
x1 = 0.005081	1.512	1.325	1.163	1.027	0.916	0.827	0.749	0.685	–
x1 = 0.006922	1.657	1.445	1.272	1.118	0.997	0.893	0.805	0.736	–
x1 = 0.009062	1.82	1.574	1.367	1.208	1.07	0.958	0.867	0.781	–
x1 = 0.01107	1.956	1.696	1.476	1.3	1.146	1.026	0.928	0.831	–
x1 = 0.01292	2.098	1.817	1.578	1.378	1.223	1.087	0.985	0.887	–
x1 = 0.0148	2.243	1.938	1.674	1.467	1.291	1.155	1.035	0.931	–
x1 = 0.01797	2.456	2.105	1.823	1.596	1.392	1.252	1.114	0.999	–
